Reference: US7807422B2, “Production of flavonoids by recombinant microorganisms” (The Research Foundation of State University of New York, priority 2004, dated 2010)

Test system: flavanone biosynthesis in recombinant yeast strain INV-4G
Assay: Eriodictyol production from caffeic acid by INV-4G in the presence of luteolin
Type: cell-based, S. cerevisiae
Conditions: varying luteolin concentrations (1, 3, 10 mg/L)
Description: Heterologous expression and fermentation. In order to assemble the two different flavone biosynthetic pathways, recombinant INVSc1 carrying plasmid Ycc4c181G was transformed with YC-FSI, YC-FSII or YC-FSII+CPR1 separately, yielding recombinant strains INV-4G+FSI, INV-4G+FSII, and INV-4G+FSII+CPR1. Yeast colonies harboring both plasmids were selected upon growth on SC agar plates lacking leucine and tryptophan (SC-Leu-Trp-). For flavone fermentation purposes, an individual recombinant yeast colony was grown overnight in 10-mL liquid SC-Leu-Trp-containing glucose at 30° C. with shaking. The following day, a portion of this culture was used to seed the main culture of SC-Leu-Trp-containing galactose and raffinose or MA-Leu-Trp-containing galactose and acetate to an Ab600 of 0.4. 0.5 mM of phenylpropanoid acid (cinnamic acid, p-coumaric acid, caffeic acid, ferulic acid) was then added to the main culture, and incubation was carried out at 30° C. with horizontal shaking for a maximum of 92 hours.
The efficiency of eriodictyol production from caffeic acid by INV-4G in the presence of varying luteolin concentrations was also tested.

SMILES: O=c1cc(-c2ccc(O)c(O)c2)oc2cc(O)cc(O)c12 [luteolin]
- regulation (feedback inhibition) of flavanone biosynthesis: did not regulate
